# Article PMC9181698 (International Journal of Molecular Sciences, 2022)
# “Also recorded” adds a separate entry of the source. Residues, ends and D or L forms follow the SMILES beside them.
# Key:
# [1] = molecular target: T1, ACE2–RBD interaction (wt SARS-CoV-2 spike protein RBD-Fc / His-tagged hACE2) (Severe acute respiratory syndrome coronavirus 2, UniProt P0DTC2); assay: SARS-CoV-2 spike protein RBD–hACE2 inhibition assay (ELISA), wt RBD; type: biochemical; settings: individual helices of LCB1
# T1 construct: SARS-CoV-2 spike protein RBD-Fc fusion protein; Fc fusion; purchased Sino Biological
# [2] = molecular target: T2, neutrophil elastase (Homo sapiens, UniProt P08246); type: in vitro ADME; settings: neutrophil elastase 5.5 µg/mL in Tris buffer 0.1 M + NaCl 0.5 M pH 7.8, enzyme pre-incubated 15 min at 37 °C, peptide 100 µM, 60 min, LC-MS (Figure 4C,D)
# T2 construct: purchased Abcam
# T2 sequence (P08246 30-267): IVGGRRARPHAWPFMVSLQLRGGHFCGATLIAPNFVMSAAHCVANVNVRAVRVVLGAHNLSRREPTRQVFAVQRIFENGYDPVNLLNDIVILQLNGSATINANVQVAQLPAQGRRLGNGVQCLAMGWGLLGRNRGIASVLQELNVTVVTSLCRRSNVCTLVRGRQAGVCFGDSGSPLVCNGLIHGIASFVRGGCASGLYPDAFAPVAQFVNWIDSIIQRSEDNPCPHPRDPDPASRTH
# Method: (§1) The enzymes (pepsin, Ph.Eur. grade, Carl Roth GmbH, and neutrophil elastase, 20–22 U/mg, Abcam, respectively) were diluted to 5.5 µg/mL in TFA 10 mM (pepsin) or Tris buffer 0.1 M + NaCl 0.5 M pH 7.8 (neutrophil elastase) and pre-incubated for 15 min at 37 °C. Peptides were added at 100 µM and incubated at 37 °C. A sample of 40 µL was taken after 60 min of incubation and the reaction was stopped by adding 5 µL sodium carbonate solution (1 M, pepsin) and 5 µL TFA (neutrophil elastase), respectively. After 10 min, 60 µL acetonitrile/water 50:50 containing 1% TFA were added, and the resulting solution was analyzed by LC-MS (conditions: Phenomenex Kinetex 2.6 μm C18 100 Å column, 50 × 2.1 mm, flow rate 0.55 mL/min, gradient of acetonitrile in H2O (both containing 0.1% TFA, 20–60% over 20 min)).
# [3] = molecular target: T3, pepsin (Sus scrofa, UniProt P00791); type: in vitro ADME; settings: pepsin 5.5 µg/mL in TFA 10 mM, enzyme pre-incubated 15 min at 37 °C, peptide 100 µM, 60 min, LC-MS (Figure 4A,B)
# T3 construct: purchased Carl Roth GmbH
# T3 sequence (P00791 60-385): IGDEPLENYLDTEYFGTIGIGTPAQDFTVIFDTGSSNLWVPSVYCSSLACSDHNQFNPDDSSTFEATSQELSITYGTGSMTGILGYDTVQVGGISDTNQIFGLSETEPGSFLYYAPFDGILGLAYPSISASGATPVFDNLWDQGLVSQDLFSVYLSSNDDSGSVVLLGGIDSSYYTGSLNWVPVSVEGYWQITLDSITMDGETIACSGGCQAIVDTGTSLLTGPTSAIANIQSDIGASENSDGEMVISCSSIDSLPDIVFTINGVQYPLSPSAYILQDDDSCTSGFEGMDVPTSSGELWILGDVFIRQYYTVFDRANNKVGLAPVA
# Method: as §1
# [4] = system: pepsin; assay: pepsin, Ph.Eur. grade, Carl Roth GmbH, diluted to 5.5 µg/mL in TFA 10 mM; settings: 37 °C, up to 60 min
# [5] = system: neutrophil elastase; assay: neutrophil elastase, 20–22 U/mg, Abcam, diluted to 5.5 µg/mL in Tris buffer 0.1 M + NaCl 0.5 M pH 7.8; settings: 37 °C, up to 60 min
Compound,Inhibitory activity on the ACE2–RBD interaction (in words) [1],Stability towards neutrophil elastase (in words) [2],Susceptibility to proteolytic degradation by pepsin (in words) [3],other results
CC[C@H](C)[C@H](NC(=O)[C@H](Cc1c[nH]c2ccccc12)NC(=O)[C@H](CCC(=O)O)NC(=O)[C@H](CCCCN)NC(=O)[C@H](CC(=O)O)NC(=O)COCCOCCNC(=O)CCCC[C@@H]1SC[C@@H]2NC(=O)N[C@@H]21)C(=O)N[C@@H](CC(C)C)C(=O)N[C@@H](CCC(N)=O)C(=O)N[C@@H](CCCCN)C(=O)N[C@H](C(=O)N[C@@H](Cc1ccc(O)cc1)C(=O)N[C@@H](CCC(=O)O)C(=O)N[C@H](C(=O)N[C@@H](CCSC)C(=O)N[C@@H](CCCNC(=N)N)C(=O)N[C@@H](CC(C)C)C(=O)N[C@@H](CC(C)C)C(=O)N[C@@H](CC(=O)O)C(=O)N[C@@H](CCC(=O)O)C(=O)N[C@@H](CC(C)C)C(N)=O)[C@@H](C)CC)[C@@H](C)CC [LW25.5] (HELM PEPTIDE1{[O=C1N[C@H]2[C@H](CS[C@H]2CCCCC(=O)[*:2])N1].[O=C(COCCOCCN[*:1])[*:2]].D.K.E.W.I.L.Q.K.I.Y.E.I.M.R.L.L.D.E.L.[am]}$$$$V2.0),completely inactive,,,
CC[C@H](C)[C@H](NC(=O)[C@H](CC(C)C)NC(=O)[C@H](CC(=O)O)NC(=O)[C@H](CO)NC(=O)[C@@H](NC(=O)[C@H](CCCNC(=N)N)NC(=O)[C@H](CCSC)NC(=O)[C@H](CO)NC(=O)[C@H](C)NC(=O)[C@H](CCC(=O)O)NC(=O)[C@H](C)NC(=O)[C@H](Cc1c[nH]cn1)NC(=O)CNC(=O)COCCOCCNC(=O)CCCC[C@@H]1SC[C@@H]2NC(=O)N[C@@H]21)C(C)C)C(=O)N[C@@H](Cc1ccc(O)cc1)C(=O)N[C@@H](CCC(=O)O)C(=O)N[C@@H](Cc1ccccc1)C(=O)N[C@@H](CCSC)C(=O)N[C@@H](CCCCN)C(=O)N[C@@H](CCCCN)C(=O)NCC(N)=O [LW25.6] (HELM PEPTIDE1{[O=C1N[C@H]2[C@H](CS[C@H]2CCCCC(=O)[*:2])N1].[O=C(COCCOCCN[*:1])[*:2]].G.H.A.E.A.S.M.R.V.S.D.L.I.Y.E.F.M.K.K.G.[am]}$$$$V2.0),completely inactive,,,
CC[C@H](C)[C@@H]1NC(=O)[C@H](CC(C)C)NC(=O)[C@H](CC(=O)O)NC(=O)[C@H](CO)NC(=O)[C@H](C(C)C)NC(=O)[C@H](CCCNC(=N)N)NC(=O)[C@H](CCSC)NC(=O)[C@H](CO)NC(=O)[C@H](C)NC(=O)[C@H](CCC(=O)O)NC(=O)[C@H](C)NC(=O)[C@H](Cc2c[nH]cn2)NC(=O)CNC(=O)[C@H](CC(C)C)NC(=O)[C@H](CCC(=O)O)NC(=O)[C@H](CC(=O)O)NC(=O)[C@H](CC(C)C)NC(=O)[C@H](CC(C)C)NC(=O)[C@H](CCCNC(=N)N)NC(=O)[C@H](CCSC)NC(=O)[C@H]([C@@H](C)CC)NC(=O)[C@H](CCC(=O)O)NC(=O)[C@H](Cc2ccc(O)cc2)NC(=O)[C@H]([C@@H](C)CC)NC(=O)[C@H](CCCCN)NC(=O)[C@H](CCC(N)=O)NC(=O)[C@H](CC(C)C)NC(=O)[C@H]([C@@H](C)CC)NC(=O)[C@H](Cc2c[nH]c3ccccc23)NC(=O)[C@H](CCC(=O)O)NC(=O)[C@@H](NC(=O)COCCOCCNC(=O)CCCC[C@@H]2SC[C@@H]3NC(=O)N[C@@H]32)CSSC[C@@H](C(N)=O)NC(=O)[C@H](CCCCN)NC(=O)[C@H](CCCCN)NC(=O)[C@H](CCSC)NC(=O)[C@H](Cc2ccccc2)NC(=O)[C@H](CCC(=O)O)NC(=O)[C@H](Cc2ccc(O)cc2)NC1=O [LW25.13],,still largely intact,largely stable,
CC[C@H](C)[C@H](NC(=O)[C@H](CC(C)C)NC(=O)[C@H](CC(=O)O)NC(=O)[C@H](CO)NC(=O)[C@@H](NC(=O)[C@H](CCCNC(=N)N)NC(=O)[C@H](CCSC)NC(=O)[C@H](CO)NC(=O)[C@H](C)NC(=O)[C@H](CCC(=O)O)NC(=O)[C@H](C)NC(=O)[C@H](Cc1c[nH]cn1)NC(=O)CNC(=O)[C@H](CC(C)C)NC(=O)[C@H](CCC(=O)O)NC(=O)[C@H](CC(=O)O)NC(=O)[C@H](CC(C)C)NC(=O)[C@H](CC(C)C)NC(=O)[C@H](CCCNC(=N)N)NC(=O)[C@H](CCSC)NC(=O)[C@@H](NC(=O)[C@H](CCC(=O)O)NC(=O)[C@H](Cc1ccc(O)cc1)NC(=O)[C@@H](NC(=O)[C@H](CCCCN)NC(=O)[C@H](CCC(N)=O)NC(=O)[C@H](CC(C)C)NC(=O)[C@@H](NC(=O)[C@H](Cc1c[nH]c2ccccc12)NC(=O)[C@H](CCC(=O)O)NC(=O)[C@H](CCCCN)NC(=O)[C@H](CC(=O)O)NC(=O)COCCOCCNC(=O)CCCC[C@@H]1SC[C@@H]2NC(=O)N[C@@H]21)[C@@H](C)CC)[C@@H](C)CC)[C@@H](C)CC)C(C)C)C(=O)N[C@@H](Cc1ccc(O)cc1)C(=O)N[C@@H](CCC(=O)O)C(=O)N[C@@H](Cc1ccccc1)C(N)=O [LW32.4],,rapidly hydrolyzed,hydrolyzed only at position L31,
Biotin-Aoa-DKEWILQKIYEIMRLLDELGHAEASMRVSDLIYEF-NH2,,,,"cleaved bond [4]: L31-I32, 60 min; cleaved bond [5]: A-S, 60 min; also recorded: S-M, 60 min"
Biotin-Aoa-[^3 CEWILQKIYEIMRLLDELGHAEASMRVSDLIYEFMKKC]-NH2,,,,not cleaved [4]: largely stable towards pepsin for at least 60 min; not cleaved [5]: still largely intact after 60 min exposure to the enzyme
